This is an account of results in paper PMC12040169 (PLOS Biology, 2025).

One data set can be described thus: in vitro. The conditions noted are these: human, hela cells.
On to `O=C(CC(c1ccccc1)c1c(O)c2ccccc2oc1=O)c1ccc(-c2ccc(Br)cc2)cc1` (centres unmarked) [CBK260877], for which the viability at 28.5 h, 10 µM came to 91.8%.

Staying with this data set, now noted: human, hela cells, % viability.
Regarding `CCOC(=O)COc1ccc(S(=O)(=O)N2CCN(Cc3ccc4c(c3)OCO4)CC2)cc1` [CBK074492], the viability at 28.5 h, 10 µM was 101%. Same read-out and setting: under `Cc1cccc(NS(=O)(=O)c2ccc(I)cc2)n1` [CBK268818] stands 87%.

Take `CCN1CCN(Cc2c(O)ccc3c(=O)c(Oc4ccccc4Cl)c(C(F)(F)F)oc23)CC1` [CBK266627]: the viability at 28.5 h, 10 µM worked out at 107%. Consider `Cc1occc1-c1nnc(SCC(=O)Nc2ccccc2)n1C` [CBK270308], for which the viability at 28.5 h, 10 µM came to 84.9%. Take `CN1CCN(NC(=O)c2cc(-c3ccc(Cl)cc3)[nH]n2)CC1` [CBK116553]: the viability at 28.5 h, 10 µM was 90.8%. Same read-out and setting: as for `CCOC(=O)c1cnc2ccc(F)cc2c1NCc1ccco1` [CBK265834], the figure is 97%; as for `CNC(=O)C1(Cc2ccc(-c3ccccc3)cc2)CCN(C(=O)c2cccc(OC)c2)CC1` [CBK285788], 105%; as for `Cc1ccc(S(=O)(=O)N(CC(=O)Nc2ccc(Cl)cc2C)c2cccc(Cl)c2C)cc1` [CBK264021], 85.7%. On the same count and under the same terms, as for `Cc1c(C(=O)Nc2cccc(C(F)(F)F)c2)sc2nc(-c3ccccc3)cn12` [CBK294408], the figure is 87.9%; as for `CCOc1ccc(NC(=O)C2CCC(C)(C(=O)O)C2(C)C)cc1` (centres unmarked) [CBK295665], 106%. Regarding `O=C(O)c1ccc(COc2ccc3ccccc3c2/C=C2/NC(=O)N(c3ccccc3)C2=O)cc1` [CBK265124], the viability at 28.5 h, 10 µM is 101%. Same read-out and setting: under `COC(=O)[C@H]1CN(C(=O)C2CC(=O)N(C)C2)C[C@@H]1c1ccc(F)cc1` (some centres unmarked) [CBK283521] stands 93%. `Cn1c(-c2ccccc2)cnc1NC(=O)CC1CCN(C(=O)Cc2ccccc2)CC1` [CBK285966]: the viability at 28.5 h, 10 µM stood at 96.9%.

Take `C/N=c1\cccccc1NC` [CBK022788]: the viability at 28.5 h, 10 µM came to 110%. Same read-out and setting: under `CCOC(=O)c1[nH]c2ccccc2c1NC(=O)c1ccoc1` [CBK160169] stands 107%; under `S=C(Nc1ccccc1Cl)Nc1ccccc1-n1cccc1` [CBK018806], 81.6%; under `COCCN1CCN(C(=O)[C@@H]2Cc3c[nH]c4cccc(c34)[C@H](CC(C)C)N2)CC1` [CBK289419], 84.5%. Still for that read-out and setting: as for `CCOc1ccc(Cl)cc1CN(C)C(=O)NCC(C)CN(C)C` (centres unmarked) [CBK307500], the figure is 121%; as for `COc1cc(C(c2c[nH]c3ccccc23)c2c[nH]c3ccccc23)ccc1OCC(=O)O` [CBK265717], 97.8%. Take `O=C1Cc2c(ccc3ccccc23)C2(CCN(CC3CCCCO3)CC2)N1` (centres unmarked) [CBK039395]: the viability at 28.5 h, 10 µM was found to be 98.8%. Take `CCCCC(=O)N(C)c1c(CC)nc2c(OCCn3cccc3)cccn12` [CBK147785]: the viability at 28.5 h, 10 µM turned out to be 102%. Same read-out and setting: as for `CN(CC(=O)N1CCC(Cc2ccccc2)CC1)S(=O)(=O)c1ccc2ccccc2c1` [CBK266931], the figure is 78.2%.

Turning to `Cc1ccc(C(=O)O)cc1NC(=O)C(=O)NCC(c1ccccc1)N1CCN(C)CC1` (centres unmarked) [CBK286864], the viability at 28.5 h, 10 µM turned out to be 92.4%. Still for that read-out and setting: as for `Cc1ccc(C(C)C)cc1OCC(=O)N/N=C\c1cc([N+](=O)[O-])ccc1O` [CBK261206], the figure is 92.6%; as for `Cc1cnc(CNC(=O)N2CCN(CCN3CCOCC3)CC2)cn1` [CBK155673], 95.2%; as for `Cc1cc(NC(=O)c2ccc(OC(C)C)cc2)no1` [CBK287575], 94.4%. Same read-out and setting: as for `CCOc1ccc2nc(SCC(=O)Nc3c(C)n(C)n(-c4ccccc4)c3=O)sc2c1` [CBK267229], the figure is 95.5%; as for `CC(SCc1ccccc1)C(=O)NC(C)c1ccccc1` (centres unmarked) [CBK263772], 103%; as for `O=C1CC2(CCN(C(=O)C3CCOC3)CC2)Oc2c(Br)cc(Br)cc21` (centres unmarked) [CBK156512], 96.4%.

On to `O=c1c(Cl)c(O)c2ccccc2n1Cc1ccccc1` [CBK291164], for which the viability at 28.5 h, 10 µM was 91.2%. For the compound `CCN(CC)C(=O)C1CCCN1C(=O)c1ccnc(N(C)C)c1` (centres unmarked) [CBK305086], the viability at 28.5 h, 10 µM was found to be 99.7%. Turning to `COc1cc(C)cc(OC)c1-c1ncnc(C)c1C` [CBK306762], the viability at 28.5 h, 10 µM is 85.7%. Still for that read-out and setting: as for `c1ccc(-c2oc3ncn4nc(COc5cccc6ccccc56)nc4c3c2-c2ccccc2)cc1` [CBK262898], the figure is 99.9%; as for `COc1ccc(C(=O)O)cc1S(=O)(=O)Nc1cccc(C=Cc2ccccn2)c1` [CBK297763], 110%. Still for that read-out and setting: as for `C[C@H](Nc1nc(-c2cccc(C(N)=O)c2)cnc1N)c1ccccc1` [CBK063715], the figure is 97.1%; as for `COc1ccc(C(=O)N2CCC3(CCN(CCN4CCCCC4)C3)C2)cc1OC` (centres unmarked) [CBK137113T], 103%.

Consider `O=C(CSCc1ccc(Cl)cc1)Nc1ccc(S(=O)(=O)N2CCCCCC2)cc1` [CBK267017], for which the viability at 28.5 h, 10 µM is 112%. The same measure, in the same setting: as for `O=C(NCc1cccc2ccccc12)N1CCCCC1CO` (centres unmarked) [CBK156167], the figure is 99.7%; as for `CC(C)NC(=O)N1Cc2nc[nH]c2C[C@H]1c1nc(-c2ccc(F)c(Cl)c2)no1` [CBK288999], 86.6%; as for `CN(C(=O)c1ccccc1C(=O)O)C1CC(C)(C)NC(C)(C)C1` [CBK287117], 98.2%. Same read-out and setting: as for `Cc1ccc2nc(C)cc(NCCO)c2c1` [CBK126909], the figure is 104%; as for `O=C(CSCc1nc2ccccc2c(=O)n1-c1ccccc1Cl)Nc1ccccc1` [CBK070895], 95.2%; as for `O=C1NC(CCSC2=NCN=N2)Oc2ccccc21` (centres unmarked) [CBK009148], 107%. On the same count and under the same terms, as for `CC(C)CC1(C(CN2C(=O)c3ccccc3C2=O)C(=O)NO)CCN(CCc2ccccc2)C1=O` (centres unmarked) [CBK013029], the figure is 103%; as for `COc1cccc(C(=O)N2CCC(NC(=O)Cc3ccc(F)cc3)CC2)c1` [CBK155027], 85%; as for `CC(=O)[C@H]1CC[C@H]2[C@@H]3CC[C@H]4CC5(CC[C@]4(C)[C@H]3CC[C@]12C)N=C1C=C(C(C)(C)C)ON1C1C=CCC15` (some centres unmarked) [CBK303246], 42.9%.

On to `O=C(O)C1CCCN1C(=O)c1ccc(C#CC2(O)CCCCC2)cc1` (centres unmarked) [CBK287022], for which the viability at 28.5 h, 10 µM came out at 105%. Take `CCOC(=O)N1CCN(S(=O)(=O)c2ccc3c(c2)n(C)c(=O)n3C)CC1` [CBK304620]: the viability at 28.5 h, 10 µM turned out to be 86.8%. The same measure, in the same setting: under `CCOc1ccccc1NC(=O)C(C)Oc1ccc(OC)cc1` (centres unmarked) [CBK266648] stands 39.6%; under `CC(c1cccc(F)c1)n1cc(C(=O)NCCc2ccco2)nn1` (centres unmarked) [CBK283582], 102%; under `COc1cccc(CNCc2ccco2)c1OCc1ccccc1F` [CBK270271C], 92.6%.

In the case of `CS(=O)(=O)Nc1ccc2[nH]ccc2c1` [CBK062728], the viability at 28.5 h, 10 µM amounted to 91.2%. Turning to `OCc1ccc(-n2ncc(-c3ccc(C(F)(F)F)cc3)n2)cc1` [CBK112696], the viability at 28.5 h, 10 µM is 94.6%.

For the compound `O=C1NC2(CCc3ccccc31)CCN(C(=O)c1cccnc1)C2` (centres unmarked) [CBK283335], the viability at 28.5 h, 10 µM is 96.5%. The same measure, in the same setting: as for `Cc1ccc(-c2ccc(/C=C/c3cc(C(F)(F)F)nc(=O)[nH]3)o2)cc1Cl` [CBK018169], the figure is 103%; as for `Cn1ccnc1C1(O)CC2CCC(C1)N2C(=O)NC1CCCCC1` (centres unmarked) [CBK284049], 88.5%.

Regarding `O=C(/C=C/c1ccc(Cl)cc1Cl)Nc1sc2c(c1C(=O)NCc1cccnc1)CCCC2` [CBK265497], the viability at 28.5 h, 10 µM turned out to be 99.3%.

For `CCc1ccc(-c2noc(CSc3n[nH]c(=O)n3CCCOC)n2)cc1` [CBK295656], the viability at 28.5 h, 10 µM amounted to 95.1%. Same read-out and setting: under `COC(=O)c1nn(-c2ccccc2)c2cc([N+](=O)[O-])ccc12` [CBK115321] stands 99.3%; under `Nc1ncc(-c2cccs2)nc1-c1ccc(C(=O)O)cc1` [CBK064133], 91.4%; under `Cc1cc(C)c(CNC(=O)C2CC(=O)N(Cc3ccccn3)C2)cn1` (centres unmarked) [CBK304673], 89.8%. Still for that read-out and setting: under `Cc1ccc(CNCCn2nnc(-c3ccc(CN4CCC(C)CC4)cc3)n2)cc1` [CBK154882T] stands 93.3%; under `COc1cccc(CC(=O)Nc2ncccc2C)c1` [CBK304982], 98.9%; under `COc1cc(/C=C(/C#N)c2ccc(C(=O)O)cc2)c([N+](=O)[O-])cc1OCc1ccccc1` [CBK268738], 92%. On the same count and under the same terms, as for `C=CCN1CCC(C(=O)NC(C)c2cc(OC)ccc2OC)CC1` (centres unmarked) [CBK148762], the figure is 116%. Take `O=C(O)c1cccc(-c2ccc(/C=N/NC(=O)c3sc4ccccc4c3Cl)o2)c1` [CBK263863]: the viability at 28.5 h, 10 µM is 91%. On the same count and under the same terms, under `OC1(Cn2cnc3ccccc32)CCN(Cc2cccc(F)c2)CC1` [CBK284663] stands 94.9%; under `Cn1nc(-c2ccc(S(=O)(=O)Nc3ccc4cn[nH]c4c3)s2)cc1C(F)(F)F` [CBK067156], 92.8%. Same read-out and setting: as for `CSc1nnc(CC2CCN(C(=O)c3cc(C)c(C)cc3C)CC2)n1C` [CBK307467], the figure is 99%. Still for that read-out and setting: under `CN(CC1OCCc2ccccc21)C(=O)CCC1CCCO1` (centres unmarked) [CBK282030] stands 87.1%. For the compound `Cc1cc(C2CCCN(C(=O)CC3OCCc4sccc43)C2)n[nH]1` (centres unmarked) [CBK305241], the viability at 28.5 h, 10 µM was 94.3%. On the same count and under the same terms, under `N#CCCN(Cc1ccccc1)C(=O)c1ccccc1[N+](=O)[O-]` [CBK264434] stands 92.6%.

Turning to `CCN(CC)CCn1c(=N)n(CC(=O)c2cccs2)c2ccccc21` [CBK278240B], the viability at 28.5 h, 10 µM amounted to 85.1%. For `C=CCC1(CC=C)CCN1C(=O)c1cc(-c2c(C)nn(C)c2C)n[nH]1` [CBK282575], the viability at 28.5 h, 10 µM stood at 82.2%. On the same count and under the same terms, under `O=C(O)CCn1c2ccc(Br)cc2c2cc(Br)ccc21` [CBK262551] stands 83.9%.

The data set is the same for the next values; noted with them: human, hela cells, % viability, bulk resorufin, single well.
Regarding `O=C1NC(=O)N(Cc2ccco2)C(=O)/C1=C\c1ccc(-c2ccc(Cl)c(C(=O)O)c2)o1` [CBK263937], the viability at 28.5 h, 10 µM turned out to be 97.9%.
